Patent publication US20260070911A1, “INHIBITORS OF TAM RECEPTORS” (National Health Research Institutes, priority 2022, published 2026)

Columns and labels:
Format in all cases: biochemical
MERTK = target: T1, MERTK (Homo sapiens, UniProt Q12866); assay: MERTK enzymatic assay (Kinase Glo); conditions: purified kinase, ATP 12 μM, read-out: MER Enzymatic Inhibition (%)
T1 sequence (Q12866 21-999): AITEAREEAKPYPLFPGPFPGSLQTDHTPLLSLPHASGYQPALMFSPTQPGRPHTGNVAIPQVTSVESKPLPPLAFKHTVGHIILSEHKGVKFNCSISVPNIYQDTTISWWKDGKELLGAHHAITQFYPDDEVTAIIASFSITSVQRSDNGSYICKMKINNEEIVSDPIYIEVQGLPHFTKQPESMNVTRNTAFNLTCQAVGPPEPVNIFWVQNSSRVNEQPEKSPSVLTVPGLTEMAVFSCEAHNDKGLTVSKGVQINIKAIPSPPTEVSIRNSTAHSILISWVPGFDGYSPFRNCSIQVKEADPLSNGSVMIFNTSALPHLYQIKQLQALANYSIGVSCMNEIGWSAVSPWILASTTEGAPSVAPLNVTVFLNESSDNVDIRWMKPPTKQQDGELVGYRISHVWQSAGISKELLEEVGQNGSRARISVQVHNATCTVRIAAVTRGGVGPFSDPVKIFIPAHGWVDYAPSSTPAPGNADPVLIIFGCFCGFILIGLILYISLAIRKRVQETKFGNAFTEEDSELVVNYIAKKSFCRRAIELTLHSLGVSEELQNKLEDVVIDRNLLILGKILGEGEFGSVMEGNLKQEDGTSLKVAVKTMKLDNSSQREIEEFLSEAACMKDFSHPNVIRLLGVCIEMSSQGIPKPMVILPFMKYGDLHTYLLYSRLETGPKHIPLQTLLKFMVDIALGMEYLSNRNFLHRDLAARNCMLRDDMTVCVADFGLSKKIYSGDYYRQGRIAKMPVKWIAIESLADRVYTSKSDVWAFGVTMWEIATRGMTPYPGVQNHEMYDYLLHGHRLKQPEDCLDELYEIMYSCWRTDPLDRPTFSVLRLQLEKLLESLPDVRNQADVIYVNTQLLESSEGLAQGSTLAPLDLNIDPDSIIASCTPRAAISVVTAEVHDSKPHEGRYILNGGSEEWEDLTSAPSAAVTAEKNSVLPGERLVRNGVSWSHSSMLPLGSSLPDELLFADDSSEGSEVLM

AXL = target: T2, AXL (Homo sapiens, UniProt P30530); assay: AXL enzymatic assay (ADP-Glo); conditions: purified kinase, ATP 50 μM, read-out: AXL Enzymatic Inhibition (%)
T2 sequence (P30530 26-894): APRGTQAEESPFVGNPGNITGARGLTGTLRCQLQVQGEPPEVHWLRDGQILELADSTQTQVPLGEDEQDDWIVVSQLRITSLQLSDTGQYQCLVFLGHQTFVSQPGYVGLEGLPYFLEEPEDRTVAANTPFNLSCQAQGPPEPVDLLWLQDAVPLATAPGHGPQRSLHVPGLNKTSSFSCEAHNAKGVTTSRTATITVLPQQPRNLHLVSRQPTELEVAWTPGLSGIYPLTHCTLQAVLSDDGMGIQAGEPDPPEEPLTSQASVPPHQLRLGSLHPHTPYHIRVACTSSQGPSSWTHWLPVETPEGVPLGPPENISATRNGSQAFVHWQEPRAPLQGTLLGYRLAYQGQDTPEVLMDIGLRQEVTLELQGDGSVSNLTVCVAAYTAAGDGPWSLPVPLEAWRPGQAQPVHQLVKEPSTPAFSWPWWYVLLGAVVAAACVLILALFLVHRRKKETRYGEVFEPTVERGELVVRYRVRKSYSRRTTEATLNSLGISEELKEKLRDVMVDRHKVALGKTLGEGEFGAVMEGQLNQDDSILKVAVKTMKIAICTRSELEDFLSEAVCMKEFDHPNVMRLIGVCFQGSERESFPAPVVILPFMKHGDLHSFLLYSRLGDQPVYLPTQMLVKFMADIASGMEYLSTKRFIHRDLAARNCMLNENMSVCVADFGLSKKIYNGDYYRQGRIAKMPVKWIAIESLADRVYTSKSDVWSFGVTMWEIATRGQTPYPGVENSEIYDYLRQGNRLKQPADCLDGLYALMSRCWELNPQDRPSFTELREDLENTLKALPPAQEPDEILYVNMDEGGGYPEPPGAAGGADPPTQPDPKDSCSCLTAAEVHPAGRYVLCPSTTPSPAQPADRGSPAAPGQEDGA

MER/AXL = assay: Dual MER/AXL inhibition (enzymatic); conditions: class for both MER and AXL

Compound	IC50 (MERTK)	IC50 (AXL)	IC50 (MER/AXL)
CN(C)Cc1cccc(-c2c[nH]c3ncnc(Oc4ccc(NC(=O)c5cn(C)n(-c6ccc(F)cc6)c5=O)cc4)c23)c1 [Compound 134]	100 to 50000 nM	100 to 50000 nM	100 to 50000 nM
Cn1cc(C(=O)Nc2ccc(Oc3ncnc4[nH]cc(-c5cccc(N)c5)c34)cc2)c(=O)n1-c1ccc(F)cc1 [Compound 124]	100 to 50000 nM	100 to 50000 nM	100 to 50000 nM
Cn1cc(-c2oc3ncnc(Oc4ccc(NC(=O)c5cccn(-c6cccc(F)c6)c5=O)cc4)c3c2-c2cccc(N)c2)cn1 [Compound 55]	20 to 100 nM	< 20 nM	20 to 100 nM
CCNc1cccc(-c2c(-c3cnn(C)c3)oc3ncnc(Oc4ccc(NC(=O)c5cn(C)n(-c6ccc(F)cc6)c5=O)cc4)c23)c1 [Compound 178]	100 to 50000 nM	< 20 nM	100 to 50000 nM
Cn1cc(-c2oc3ncnc(Oc4ccc(NC(=O)c5ccc(-c6cccc(F)c6)o5)cc4)c3c2-c2cccc(N)c2)cn1 [Compound 119]	100 to 50000 nM	20 to 100 nM	100 to 50000 nM
O=C(Nc1ccc(Oc2ncnc3[nH]cc(C#Cc4ccccc4)c23)cc1)c1cccn(-c2ccc(F)cc2)c1=O [Compound 18]	100 to 50000 nM	< 20 nM	100 to 50000 nM
CC(=O)Nc1cccc(-c2c(-c3cnn(C)c3)oc3ncnc(Oc4ccc(NC(=O)c5cccn(-c6ccc(F)cc6)c5=O)nc4)c23)c1 [Compound 53]	20 to 100 nM	20 to 100 nM	20 to 100 nM
O=C(Nc1ccc(Oc2ncnc3oc(-c4ccccc4)cc23)cc1)c1cccn(-c2ccc(F)cc2)c1=O [Compound 42]	100 to 50000 nM	100 to 50000 nM	100 to 50000 nM
Cn1cc(-c2oc3ncnc(Oc4ccc(NC(=O)c5cccn(-c6ccc(F)cc6)c5=O)cc4)c3c2-c2ccc(N3CCNCC3)cc2)cn1 [Compound 32]	< 20 nM	< 20 nM	< 20 nM
Cn1cc(-c2cc3c(Oc4ccc(NC(=O)c5cccn(-c6ccc(F)cc6)c5=O)cc4)ncnc3[nH]2)cn1 [Compound 78]	20 to 100 nM	< 20 nM	20 to 100 nM
CN(C)Cc1cccc(-c2n[nH]c3ncnc(Oc4ccc(NC(=O)c5cn(C)n(-c6ccc(F)cc6)c5=O)cc4)c23)c1 [Compound 139]	100 to 50000 nM	100 to 50000 nM	100 to 50000 nM
CC(=O)Nc1cccc(-c2coc3ncnc(Oc4ccc(NC(=O)c5cccn(-c6ccc(F)cc6)c5=O)cc4)c23)c1 [Compound 47]	100 to 50000 nM	20 to 100 nM	100 to 50000 nM
CC(=O)Nc1cccc(-c2c(-c3cnn(C)c3)oc3ncnc(Oc4ccc(NC(=O)c5ccc(-c6ccc(F)cc6)o5)cc4)c23)c1 [Compound 118]	100 to 50000 nM	100 to 50000 nM	100 to 50000 nM
CC(=O)Nc1cccc(-c2c(-c3cnn(C)c3)oc3ncnc(Oc4ccc(NC(=O)c5ccc(-c6cccc(F)c6)o5)cc4)c23)c1 [Compound 120]	100 to 50000 nM	100 to 50000 nM	100 to 50000 nM
Cn1cc(-c2oc3ncnc(Oc4ccc(NC(=O)c5cccn(-c6ccc(F)cc6F)c5=O)cc4)c3c2-c2cccc(N)c2)cn1 [Compound 92]	20 to 100 nM	< 20 nM	20 to 100 nM
CC(=O)Nc1cccc(-c2c(-c3cnn(C)c3)oc3ncnc(Oc4ccc(NC(=O)c5ccc(C)n(-c6ccc(F)cc6)c5=O)cc4)c23)c1 [Compound 70]	< 20 nM	< 20 nM	< 20 nM
Cc1ccn(-c2ccc(F)cc2)c(=O)c1C(=O)Nc1ccc(Oc2ncnc3oc(-c4cnn(C)c4)c(-c4cccc(N)c4)c23)cc1 [Compound 71]	< 20 nM	< 20 nM	< 20 nM

Compound	IC50 (MERTK)	IC50 (AXL)	IC50 (MER/AXL)
COc1nn(-c2ccc(C)cc2)cc1C(=O)Nc1ccc(Oc2ncnc3oc(-c4cnn(C)c4)c(-c4cccc(N)c4)c23)cc1 [Compound 136]	100 to 50000 nM	100 to 50000 nM	100 to 50000 nM
CC(=O)Nc1cccc(-c2c(C)oc3ncnc(Oc4ccc(NC(=O)c5cccn(-c6ccc(F)cc6)c5=O)cc4)c23)c1 [Compound 50]	100 to 50000 nM	20 to 100 nM	100 to 50000 nM
Cn1cc(-c2oc3ncnc(Oc4ccc(NC(=O)c5cccn(-c6ccc(F)cc6)c5=O)nc4)c3c2-c2cccc(N)c2)cn1 [Compound 52]	20 to 100 nM	< 20 nM	20 to 100 nM
CN(C)Cc1cccc(-c2c(-c3cnn(C)c3)oc3ncnc(Oc4ccc(NC(=O)c5cccn(-c6ccc(F)c(F)c6)c5=O)cc4)c23)c1 [Compound 95]	< 20 nM	< 20 nM	< 20 nM
Cn1cc(-c2oc3ncnc(Oc4ccc(NC(=O)c5cccn(-c6ccc(F)cc6)c5=O)cc4)c3c2-c2cccc(N3CCCCC3=O)c2)cn1 [Compound 175]	100 to 50000 nM	100 to 50000 nM	100 to 50000 nM
Cn1cc(-c2oc3ncnc(Oc4ccc(NC(=O)c5cccn(-c6ccc(F)c(F)c6)c5=O)cc4)c3c2-c2cccc(N)c2)cn1 [Compound 94]	20 to 100 nM	< 20 nM	20 to 100 nM
Cn1cc(-c2oc3ncnc(Oc4ccc(NC(=O)c5cccn(C)c5=O)cc4)c3c2-c2cccc(N)c2)cn1 [Compound 66]	100 to 50000 nM	100 to 50000 nM	100 to 50000 nM
CC(=O)Nc1cccc(-c2c(-c3cnn(C)c3)oc3ncnc(Oc4ccc(NC(=O)c5cc(-c6ccc(F)cc6)on5)cc4)c23)c1 [Compound 116]	100 to 50000 nM	100 to 50000 nM	100 to 50000 nM
Nc1cccc(-c2c[nH]c3ncnc(Nc4ccc(NC(=O)c5cccn(-c6ccc(F)cc6)c5=O)cc4)c23)c1 [Compound 14]	100 to 50000 nM	< 20 nM	100 to 50000 nM
Cn1cc(-c2cc3c(Oc4ccc(NC(=O)c5cccn(C6CCCCC6)c5=O)cc4)ncnc3o2)cn1 [Compound 86]	100 to 50000 nM	100 to 50000 nM	100 to 50000 nM
O=C(Nc1ccc(Oc2ncnc3[nH]cc(-c4ccccn4)c23)cc1)c1cccn(-c2ccc(F)cc2)c1=O [Compound 17]	100 to 50000 nM	< 20 nM	100 to 50000 nM
Cn1cc(-c2oc3ncnc(Oc4ccc(NC(=O)c5ccc(-c6ccc(F)cc6)o5)cc4)c3c2-c2cccc(N)c2)cn1 [Compound 117]	100 to 50000 nM	20 to 100 nM	100 to 50000 nM
Nc1cccc(-c2n[nH]c3ncnc(Oc4ccc(NC(=O)c5cccn(-c6ccc(F)cc6)c5=O)cc4)c23)c1 [Compound 36]	100 to 50000 nM	20 to 100 nM	100 to 50000 nM
Cn1cc(-c2oc3ncnc(Oc4ccc(NC(=O)c5cc6c(n(-c7ccc(F)cc7)c5=O)CCCC6=O)cc4)c3c2-c2cccc(N)c2)cn1 [Compound 68]	20 to 100 nM	< 20 nM	20 to 100 nM
Cc1cc(F)ccc1-n1cccc(C(=O)Nc2ccc(Oc3ncnc4oc(-c5cnn(C)c5)c(-c5cccc(N)c5)c34)cc2)c1=O [Compound 73]	20 to 100 nM	< 20 nM	20 to 100 nM
CC(=O)Nc1cccc(-c2c(-c3cnn(C)c3)oc3ncnc(Oc4ccc(NC(=O)c5cccn(-c6ccccc6)c5=O)cc4)c23)c1 [Compound 56]	20 to 100 nM	< 20 nM	20 to 100 nM
